Marks after values point to notes of the source that are not given here.
Experiments:
[1] = system: SH-SY5Y; assay: MTT cytotoxicity, SH-SY5Y (brain); format: cell-based, human; details: MTT test, 72 hrs
[2] = system: human foreskin (HFFF2) fibroblasts; assay: Cytotoxicity towards human non-tumor cells, HFFF2; format: cell-based; details: MTT test, 72 hrs
[3] = system: human osteosarcoma cells resistant (U-2 OS/Pt) to CDDP; assay: Cross resistance MTT test, U-2 OS Pt (CDDP resistant); format: cell-based; details: for IC50: U-2 OS Pt (CDDP resistant), MTT test, 72 h, probit analysis
[4] = system: BGC-823; assay: MTT cytotoxicity, BGC-823 (stomach); format: cell-based, human; details: MTT test, 72 hrs
Source text: (§1) The in vitro antitumor activity of CP had been deeply evaluated in several human cancer cell lines by in vitro cytotoxicity assays. CP cytotoxicity has been detected in a large panel of human cell lines derived from a wide variety of solid tumors, including refractory tumors. In Table 1, the cytotoxicity parameters IC50 (that is the median growth inhibitory concentrations calculated from dose-survival curves via MTT test) are tabulated.
(§2) Cell lines representative of lung (H157, U1810, U1285, Calu-1), pancreas (MIA PaCa-2, BxPC-3, AsPC-1, Capan-1), liver (Huh-7, Hep 3B, SK-Hep-1), oesophagus (OE33, OE21), oesophagus/gastric cardia (OE19), stomach (BGC-823, AGS), colon (HCT-116, T84, COLO 205), breast (MDA-MB-231, SK-BR-3), cervix (CaSki, C-33 A) ovarian (A2780, SK-OV-3, IGROV1), prostate (LnCaP, PC-3) cancers along with melanoma (MEWO, G361, C-32), neuroblastoma (SH-SY5Y, SK-N-AS, IMR-32) and osteosarcoma (U-2 OS, MG-63) have been treated with increasing concentration of CP for 72 hrs.

[5] = system: AsPC-1; assay: MTT cytotoxicity, AsPC-1 (pancreas); format: cell-based, human; details: MTT test, 72 hrs
Source text: as §1, §2

[6] = system: HCT-116; assay: MTT cytotoxicity, HCT-116 (colon); format: cell-based, human; details: MTT test, 72 hrs
Source text: as §1, §2

[7] = system: LNCap; assay: MTT cytotoxicity, LNCap (prostate); format: cell-based, human; details: MTT test, 72 hrs
Source text: as §1, §2

[8] = system: MDA-MB-231; assay: MTT cytotoxicity, MDA-MB-231 (breast); format: cell-based, human; details: MTT test, 72 hrs
Source text: as §1, §2

[9] = system: U1285; assay: MTT cytotoxicity, U1285 (lung); format: cell-based, human; details: MTT test, 72 hrs
Source text: as §1, §2

[10] = system: U-2 OS; assay: MTT cytotoxicity, U-2 OS (bone); format: cell-based, human; details: MTT test, 72 hrs
Source text: as §1, §2

[11] = system: MG-63; assay: MTT cytotoxicity, MG-63 (bone); format: cell-based, human; details: MTT test, 72 hrs
Source text: as §1, §2

[12] = system: MEWO; assay: MTT cytotoxicity, MEWO (skin); format: cell-based, human; details: MTT test, 72 hrs
Source text: as §1, §2

[13] = system: BxPC-3; assay: MTT cytotoxicity, BxPC-3 (pancreas); format: cell-based, human; details: MTT test, 72 hrs
Source text: as §1, §2

[14] = system: SK-BR-3; assay: MTT cytotoxicity, SK-BR-3 (breast); format: cell-based, human; details: MTT test, 72 hrs
Source text: as §1, §2

[15] = system: IMR-32; assay: MTT cytotoxicity, IMR-32 (brain); format: cell-based, human; details: MTT test, 72 hrs
[16] = system: H157; assay: MTT cytotoxicity, H157 (lung); format: cell-based, human; details: MTT test, 72 hrs
Source text: as §1, §2

[17] = system: G361; assay: MTT cytotoxicity, G361 (skin); format: cell-based, human; details: MTT test, 72 hrs
Source text: as §1, §2

[18] = system: Huh-7; assay: MTT cytotoxicity, Huh-7 (liver); format: cell-based, human; details: MTT test, 72 hrs
Source text: as §1, §2

[19] = system: human ovarian adenocarcinoma cells resistant (A2780cisR) to CDDP; assay: Cross resistance MTT test, A2780cisR (CDDP resistant); format: cell-based; details: for IC50: A2780cisR (CDDP resistant), MTT test, 72 h, probit analysis; for R.F. (Resistant factor): IC50 resistant/parent line: A2780cisR / A2780
[20] = system: OE21; assay: MTT cytotoxicity, OE21 (oesophagus); format: cell-based, human; details: MTT test, 72 hrs
Source text: as §1, §2

[21] = system: human colon adenocarcinoma cells sensitive (HCT-116); assay: Cross resistance MTT test, HCT-116 (OXP sensitive); format: cell-based; details: 72 h, probit analysis
[22] = Solubility in water; format: physicochemical
[23] = Tissue distribution (Cu content) in LLC bearing mice; format: in vivo, C57BL mice; details: 50 mg/kg i.p., 24 hrs; Cu by atomic absorption, treated versus control (FIG. 4)
Experimental: Mice were inoculated […]. on the right flank with 2×10^6 LLC cells. After 10 days, CP was administered i.p. at a dose of 50 mg/kg. The mice were sacrificed after 24 hours and tumor (indicated with 1), brain (indicated with 2), spleen (indicated with 3), kidney (indicated with 4), intestine (indicated with 5), liver (indicated with 6) and stomach (indicated with 7) were excised. Tissues were washed in ice-cold saline and weighed after removing excess fluid. All samples were mineralized in HNO3 and Cu content in each sample was measured by atomic absorption spectrophotometry. The Y axis indicates the ratio of copper amount in treated versus control mice.
To assess the potential selectivity to the solid tumor mass, tissue distribution of CP was investigated in LLC bearing C57BL mice. Biodistribution studies are very helpful in assessing the ability of a molecule to traverse multilayers of cells. Chemotherapy of solid tumors often fails because adequate cytotoxic concentrations are not achieved due to poor penetration and non-uniform distribution of the drug.
To assess the potential selectivity to the solid tumor mass, tissue distribution of [Cu(thp)4][PF6] (CP) was investigated in LLC bearing C57BL mice. On day 10 after tumor implantation, mice were treated with a single i.p. injection of 50 mg/kg of CP.

[24] = system: C57BL mice; assay: Acute toxicity tests in healthy C57BL mice; format: in vivo; details: observed 24 hrs
Experimental: The acute toxicity was assessed by treating BALB/c or C57BL mice with a single intraperitoneal (i.p.) or endovenous (e.v.) administration of different amounts, i.e. 3.125, 6.25, 12.5, 25, 50, 100 and 200 mg/kg of tested compounds.
To preliminarily establish the toxicity profile of CP, acute and repeat-dose toxicity studies were performed in BALB/c mice and in C57BL mice.

[25] = system: human cancer versus human normal cells
[26] = system: human leukemic cell lines; assay: Cytotoxicity against human leukemic cell lines; format: cell-based; details: several human leukemic cell lines
Source text: (§3) The detection of drug uptake by tumor cells in animal models clearly attest that CP efficiently and selectively accumulates in the solid tumor mass.

[27] = system: L1210 murine leukemia; assay: Antitumor efficacy in murine leukemia; format: in vivo; details: established animal leukaemia
Experimental: as §3
The antitumor efficacy of CP was evaluated in L1210 murine leukemia and in mouse Lewis Lung carcinoma (LLC).

[28] = human non-tumor versus malignant cells

Compound	IC50 [1] [nM]	IC50 [2] [nM]	IC50 [3] [nM]	IC50 [4] [nM]	IC50 [5] [nM]	IC50 [6] [nM]	IC50 [7] [nM]	IC50 [8] [nM]	IC50 [9] [nM]	IC50 [10] [nM]	IC50 [11] [nM]	IC50 [12] [nM]	IC50 [13] [nM]	IC50 [14] [nM]	IC50 [15] [nM]	IC50 [16] [nM]	IC50 [17] [nM]	IC50 [18] [nM]	IC50 [19] [nM]	R.F. (Resistant factor) [19]	also measured
N.N.[Cl][Pt][Cl] [CDDP, cis-diamminodichloro platinum(II)]	5160 ± 1230	20800 ± 2330	14600 ± 1300	3210 ± 1000	29500 ± 1570	8260 ± 1110	1080 ± 1010	3230 ± 1560	4370 ± 1060	5150 ± 1940	5760 ± 1010	6760 ± 1470	11500 ± 2510	5120 ± 1510	4450 ± 980	5990 ± 2710	1320 ± 1010	3240 ± 960	13100 ± 2300	5.3	R.F. (Resistant factor) ([3]; IC50 resistant/parent line: U-2 OS Pt / U-2 OS): 2.5; IC50 [20]: 3760 ± 1080 nM
F[P-](F)(F)(F)(F)F.OC[P+](CO)(CO)[Cu-3]([P+](CO)(CO)CO)([P+](CO)(CO)CO)[P+](CO)(CO)CO [CP, [Cu(thp)4][PF6]]	660 ± 120	31100 ± 3480	4300 ± 1100	1080 ± 660	1550 ± 730	460 ± 70	650 ± 870	2110 ± 1230	870 ± 510	1340 ± 920	1430 ± 740	1130 ± 740	1340 ± 1110	1890 ± 990	720 ± 180	1510 ± 660	980 ± 120	760 ± 310	2100 ± 1200	1.2	IC50 [21]: 1400 ± 500 nM; solubility in water [22]: excellent solubility in water; CP concentration in solid tumor mass [23]: highest CP concentration; copper drug in brain [23]: No copper drug was detected; copper drug in intestinal tract [23]: very little; LD50 ([24]; single e.v. administration): 115^b mg/kg; LD50 ([24]; single i.p. administration): 125^a mg/kg; Selectivity index (SI) ([25]; average IC50 towards normal cells divided by average IC50 for the malignant cells): 32.4; SI fold higher than CDDP [25, 28]: about 2 fold; SI fold higher than OXP [25, 28]: ~3 fold; cytotoxicity against human leukemic cell lines [26]: high cytotoxicity; antitumor efficacy against animal leukaemia [27]: failed to show significant antitumor efficacy; IC50 [20]: 1190 ± 720 nM

— patent US9114149B2, “[CU(thp)4]n[X]-n compounds for the treatment of a broad range of human solid tumors, including refractory tumors” (Universita Degli Studi Di Padova, priority 2011, dated 2015)
